Laboratory results as given in paper PMC5319851 (Bioorganic & medicinal chemistry, 2016).

System: HsMetAP2
Conditions: read-out: HsMetAP2 IC50; cited from earlier work

Row | SMILES | IC50 [µM]
1 | CC(C)(C)c1ccc(CSc2nnc(N)[nH]2)cc1 [Compound 19] | > 15
2 | Cc1ccc2cccc(O)c2n1 [Compound 20, 2-methyl-8-quinolinol] | 2.03 ± 0.3

System: primary pulmonary vascular endothelial cells (ECs)
Conditions: not given

Row | SMILES | Host EC metabolism (WST-1) of uninfected ECs | Effect of compound alone on appearance of EC monolayers
3 | Nc1n[nH]c(SCc2ccccc2)n1 [Compound 12] | stimulated EC metabolism | 
4 | Nc1n[nH]c(SCc2ccccc2Cl)n1 [Compound 15] | stimulated EC metabolism | 
5 | Nc1nnc(SCc2ccc(Cl)cc2)[nH]1 [Compound 16] | stimulated EC metabolism | no overt effect on the appearance of the monolayers

Target: RpMetAP1 (Rickettsia prowazekii, UniProt Q9ZCD3)
Conditions: not given

RpMetAP1, sequence (Q9ZCD3 whole entry, looked up): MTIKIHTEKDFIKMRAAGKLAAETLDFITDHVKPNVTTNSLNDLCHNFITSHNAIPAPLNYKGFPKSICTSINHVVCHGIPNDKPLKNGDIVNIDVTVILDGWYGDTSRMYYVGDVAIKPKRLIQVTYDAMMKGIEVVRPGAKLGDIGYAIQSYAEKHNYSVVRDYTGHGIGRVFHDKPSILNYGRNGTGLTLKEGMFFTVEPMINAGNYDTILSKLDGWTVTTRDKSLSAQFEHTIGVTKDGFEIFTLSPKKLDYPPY

Row | SMILES | Hill Slope (furoic acid species) | Hill Slope (quinolinol species)
6 | O=C(O)c1ccc(-c2cccc([N+](=O)[O-])c2)o1 [Compound 2] | 1.0 ± 0.1 | 
7 | O=C(O)c1ccc(-c2cccc(C(F)(F)F)c2)o1 [Compound 3] | 1.0 ± 0.1 | 
8 | O=C(O)c1ccc(-c2ccccc2)o1 [Compound 4, 5-phenyl-2-furoic acid] | 1.0 ± 0.1 | 
9 | Cc1ccc(-c2ccc(C(=O)O)o2)cc1 [Compound 5] | 1.0 ± 0.1 | 
10 | O=C(O)c1ccc(-c2ccccc2C(F)(F)F)o1 [Compound 6] | 2.1 ± 0.1 | 
11 | O=C(O)c1ccc(-c2ccc(Br)cc2)o1 [Compound 7] | 1.0 ± 0.1 | 
12 | Cc1ccccc1-c1ccc(C(=O)O)o1 [Compound 8] | 1.3 ± 0.1 | 
13 | Cc1cccc(-c2ccc(C(=O)O)o2)c1 [Compound 9] | 1.0 ± 0.1 | 
14 | Cc1ccc2cccc(O)c2n1 [Compound 20, 2-methyl-8-quinolinol] |  | 1.1 ± 0.1
15 | Oc1ccc(Cl)c2cccnc12 [Compound 22, 5-chloro-8-quinolinol] |  | 1.9 ± 0.2
16 | O=[N+]([O-])c1ccc(O)c2ncccc12 [Compound 23, nitroxoline, reference compound] |  | 1.7 ± 0.5
17 | Oc1c(CN2CCOCC2)cc(Cl)c2cccnc12 [Compound 24] |  | 1.5 ± 0.1
18 | O=[N+]([O-])c1cc(CN2CCOCC2)c(O)c2ncccc12 [Compound 26] |  | 1.0 ± 0.1

System: HsMetAP1
Conditions: read-out: HsMetAP1 IC50; cited from earlier work

Row | SMILES | IC50 [µM]
19 | CC(C)(C)c1ccc(CSc2nnc(N)[nH]2)cc1 [Compound 19] | > 15
20 | Cc1ccc2cccc(O)c2n1 [Compound 20, 2-methyl-8-quinolinol] | > 15
